Source: patent US10004732B2 (Novartis AG, priority 2014, dated 2018)
pIC50: −log10 of the molar value. Where two headings read alike, the source gives them in different places.

How the values were obtained:
Vps34 = Vps34 (Homo sapiens, UniProt Q8NEB9); test: Kinase Glo Luminescent Kinase Assay (Kglo), assay C; format: biochemical; details: read-out: Assay C VPS34 IC50
PI 3-kinase alpha = PI 3-kinase alpha (Homo sapiens, UniProt P42336); test: Kinase Glo Luminescent Kinase Assay (Kglo), assay A; format: biochemical; details: read-out: Assay A PI3Kα IC50
Sequence of PI 3-kinase alpha (P42336 whole entry): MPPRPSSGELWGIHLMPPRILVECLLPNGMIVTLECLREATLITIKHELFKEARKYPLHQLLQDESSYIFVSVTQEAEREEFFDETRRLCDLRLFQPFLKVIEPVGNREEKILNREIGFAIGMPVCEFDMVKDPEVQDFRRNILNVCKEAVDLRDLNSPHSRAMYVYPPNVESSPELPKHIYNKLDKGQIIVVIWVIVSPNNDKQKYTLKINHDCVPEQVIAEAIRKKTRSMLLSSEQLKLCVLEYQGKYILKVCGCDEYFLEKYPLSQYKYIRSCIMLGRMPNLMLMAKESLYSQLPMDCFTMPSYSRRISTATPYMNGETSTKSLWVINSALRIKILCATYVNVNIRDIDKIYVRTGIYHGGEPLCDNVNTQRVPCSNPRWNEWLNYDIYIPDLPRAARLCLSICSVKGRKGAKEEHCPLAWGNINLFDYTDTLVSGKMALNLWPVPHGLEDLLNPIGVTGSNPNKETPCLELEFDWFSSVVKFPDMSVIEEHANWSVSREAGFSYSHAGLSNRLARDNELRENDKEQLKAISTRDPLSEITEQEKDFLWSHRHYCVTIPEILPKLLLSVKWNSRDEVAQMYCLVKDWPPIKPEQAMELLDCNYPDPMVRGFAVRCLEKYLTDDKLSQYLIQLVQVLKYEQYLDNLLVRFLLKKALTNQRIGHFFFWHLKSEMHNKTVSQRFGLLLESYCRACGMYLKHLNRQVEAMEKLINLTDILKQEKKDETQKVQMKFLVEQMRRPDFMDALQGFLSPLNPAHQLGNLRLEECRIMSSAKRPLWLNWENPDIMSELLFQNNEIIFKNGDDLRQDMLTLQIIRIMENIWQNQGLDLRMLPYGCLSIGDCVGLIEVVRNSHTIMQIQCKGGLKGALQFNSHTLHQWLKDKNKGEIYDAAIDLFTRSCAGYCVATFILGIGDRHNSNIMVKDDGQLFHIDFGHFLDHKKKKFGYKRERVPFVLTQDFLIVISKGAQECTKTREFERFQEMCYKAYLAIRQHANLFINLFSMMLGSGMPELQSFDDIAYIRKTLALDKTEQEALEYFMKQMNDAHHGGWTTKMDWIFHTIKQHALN
Protocol: Kinase Glo Luminescent Kinase Assay (Kglo) for Pb 3-Kinase Alpha (A), Pb 3-Kinase Beta (B), Vps34 (C), Pb 4-Kinase Beta (D)
The Kinase Glo Luminescent Kinase Assay (Promega, Madison/Wis., USA) is a homogeneous HTS method of measuring kinase activity by quantifying the amount of ATP remaining in solution following a kinase reaction.
L-α-phosphatidylinositol (PI), provided as 10 mg/ml solution in methanol, was transferred into a glass tube and dried under a nitrogen beam. It was then resuspended in 3% OctylGlucoside (1-0-n-octyl-beta-D-glucopyranoside) by vortexing and stored at 4° C. 5 μL of a mix of PI/OctylGlucoside with the PI 3-kinase alpha and PI 3-kinase beta subtypes, or Vps34 or PI 4-kinase beta were added. Kinase reactions were started by the addition of 5 μl of an ATP-mix containing in a final volume 10 μL 10 mM TRIS-HCl pH 7.5, 3 mM MgCl2, 50 mM NaCl, 0.05% CHAPS, 1 mM DTT and 1 μM ATP at room temperature.
All fits were performed with the program XLfit4 (ID Business Solutions, Guildford, UK).

PI 3-kinase beta = PI 3-kinase beta (Homo sapiens, UniProt P42338); test: Kinase Glo Luminescent Kinase Assay (Kglo), assay B; format: biochemical; details: read-out: Assay B PI3Kβ IC50
PI 3-kinase gamma = PI 3-kinase gamma (Homo sapiens, UniProt P48736); test: TR-FRET Adapta assay, assay E; format: biochemical; details: read-out: Assay E PI3Kγ IC50
Sequence of PI 3-kinase gamma (P48736 whole entry): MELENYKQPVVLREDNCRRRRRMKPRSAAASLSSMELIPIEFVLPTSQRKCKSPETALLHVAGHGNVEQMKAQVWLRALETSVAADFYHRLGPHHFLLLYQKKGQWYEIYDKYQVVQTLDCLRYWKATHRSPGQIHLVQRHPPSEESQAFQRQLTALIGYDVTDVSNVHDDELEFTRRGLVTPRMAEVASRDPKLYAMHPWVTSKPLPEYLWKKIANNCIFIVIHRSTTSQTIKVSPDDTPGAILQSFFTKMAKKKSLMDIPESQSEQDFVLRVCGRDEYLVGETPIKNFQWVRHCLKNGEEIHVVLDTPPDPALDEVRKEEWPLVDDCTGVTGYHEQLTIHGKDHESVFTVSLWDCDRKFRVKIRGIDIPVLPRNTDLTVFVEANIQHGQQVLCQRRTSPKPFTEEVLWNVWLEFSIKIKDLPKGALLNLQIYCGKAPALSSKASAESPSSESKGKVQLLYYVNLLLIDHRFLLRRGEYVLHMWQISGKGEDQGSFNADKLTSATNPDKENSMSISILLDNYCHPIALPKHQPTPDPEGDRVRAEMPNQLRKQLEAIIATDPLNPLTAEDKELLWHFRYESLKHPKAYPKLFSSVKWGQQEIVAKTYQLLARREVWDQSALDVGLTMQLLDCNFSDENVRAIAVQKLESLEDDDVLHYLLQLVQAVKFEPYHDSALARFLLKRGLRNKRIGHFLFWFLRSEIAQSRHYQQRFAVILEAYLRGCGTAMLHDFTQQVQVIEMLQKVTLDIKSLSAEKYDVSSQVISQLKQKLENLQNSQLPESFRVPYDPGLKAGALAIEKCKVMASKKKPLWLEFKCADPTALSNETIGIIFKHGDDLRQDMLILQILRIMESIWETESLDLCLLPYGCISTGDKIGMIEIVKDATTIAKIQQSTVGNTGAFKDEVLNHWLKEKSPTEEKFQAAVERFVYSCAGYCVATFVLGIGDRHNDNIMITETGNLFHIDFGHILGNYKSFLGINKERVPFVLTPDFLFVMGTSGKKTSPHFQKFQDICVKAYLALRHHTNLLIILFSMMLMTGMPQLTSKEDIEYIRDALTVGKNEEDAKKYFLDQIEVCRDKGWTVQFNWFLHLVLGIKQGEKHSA

PI 3-kinase delta = PI 3-kinase delta (Homo sapiens, UniProt O00329); test: TR-FRET Adapta assay, assay F
Sequence of PI 3-kinase delta (O00329 whole entry): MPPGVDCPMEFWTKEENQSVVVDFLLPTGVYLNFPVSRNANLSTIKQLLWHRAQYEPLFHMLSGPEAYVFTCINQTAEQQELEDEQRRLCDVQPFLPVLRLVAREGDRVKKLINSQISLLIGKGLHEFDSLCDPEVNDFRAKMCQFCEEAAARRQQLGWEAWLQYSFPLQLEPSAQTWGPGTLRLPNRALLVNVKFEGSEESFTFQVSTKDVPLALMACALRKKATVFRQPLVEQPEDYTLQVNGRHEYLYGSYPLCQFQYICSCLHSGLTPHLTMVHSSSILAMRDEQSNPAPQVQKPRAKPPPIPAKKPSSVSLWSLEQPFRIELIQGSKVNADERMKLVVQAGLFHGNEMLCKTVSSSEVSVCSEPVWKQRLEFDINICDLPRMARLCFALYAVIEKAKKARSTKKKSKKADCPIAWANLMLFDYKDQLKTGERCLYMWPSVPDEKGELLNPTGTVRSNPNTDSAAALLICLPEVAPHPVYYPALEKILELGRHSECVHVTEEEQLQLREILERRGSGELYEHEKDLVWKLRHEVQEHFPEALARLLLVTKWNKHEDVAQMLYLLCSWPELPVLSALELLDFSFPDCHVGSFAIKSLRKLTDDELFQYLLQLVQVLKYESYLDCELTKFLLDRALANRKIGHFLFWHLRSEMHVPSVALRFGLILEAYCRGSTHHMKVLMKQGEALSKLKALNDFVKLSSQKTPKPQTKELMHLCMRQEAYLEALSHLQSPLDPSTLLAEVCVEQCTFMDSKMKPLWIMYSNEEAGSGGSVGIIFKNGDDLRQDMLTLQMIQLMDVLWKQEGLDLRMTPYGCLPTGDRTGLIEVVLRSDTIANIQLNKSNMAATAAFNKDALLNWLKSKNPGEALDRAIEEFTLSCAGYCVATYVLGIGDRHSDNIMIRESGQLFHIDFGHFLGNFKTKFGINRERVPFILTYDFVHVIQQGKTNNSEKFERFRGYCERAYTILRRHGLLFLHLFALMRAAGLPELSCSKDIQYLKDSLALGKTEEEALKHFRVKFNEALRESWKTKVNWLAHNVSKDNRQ
Sequence of PI 3-kinase delta (P27986 461-568 partner): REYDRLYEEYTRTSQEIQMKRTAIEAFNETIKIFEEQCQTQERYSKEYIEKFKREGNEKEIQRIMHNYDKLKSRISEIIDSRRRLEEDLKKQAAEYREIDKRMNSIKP

PI 4-kinase beta = PI 4-kinase beta (Homo sapiens, UniProt Q9UBF8); test: Kinase Glo Luminescent Kinase Assay (Kglo), assay D; format: biochemical; details: read-out: Assay D PI4Kβ IC50
Sequence of PI 4-kinase beta (Q9UBF8 whole entry): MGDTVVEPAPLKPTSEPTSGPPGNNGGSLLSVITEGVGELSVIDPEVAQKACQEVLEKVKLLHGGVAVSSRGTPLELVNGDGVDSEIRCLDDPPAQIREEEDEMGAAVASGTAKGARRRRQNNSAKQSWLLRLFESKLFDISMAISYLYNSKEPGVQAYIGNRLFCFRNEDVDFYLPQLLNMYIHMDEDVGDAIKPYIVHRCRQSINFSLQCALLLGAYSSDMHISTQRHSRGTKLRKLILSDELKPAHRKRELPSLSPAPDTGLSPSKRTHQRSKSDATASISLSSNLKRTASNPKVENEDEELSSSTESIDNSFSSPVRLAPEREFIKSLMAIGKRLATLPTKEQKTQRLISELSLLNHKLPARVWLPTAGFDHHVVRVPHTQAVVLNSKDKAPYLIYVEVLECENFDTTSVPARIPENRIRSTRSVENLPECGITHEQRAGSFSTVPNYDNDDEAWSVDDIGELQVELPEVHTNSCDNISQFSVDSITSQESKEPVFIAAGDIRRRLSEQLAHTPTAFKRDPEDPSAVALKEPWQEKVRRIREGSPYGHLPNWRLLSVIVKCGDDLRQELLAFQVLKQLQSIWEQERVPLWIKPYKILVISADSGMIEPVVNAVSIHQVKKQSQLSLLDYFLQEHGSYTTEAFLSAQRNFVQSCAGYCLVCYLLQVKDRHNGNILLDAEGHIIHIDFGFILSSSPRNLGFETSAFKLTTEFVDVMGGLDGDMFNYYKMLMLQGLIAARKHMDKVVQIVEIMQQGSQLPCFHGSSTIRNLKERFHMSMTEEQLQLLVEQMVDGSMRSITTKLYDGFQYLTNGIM

mTOR = mTOR (Homo sapiens, UniProt P42345); test: Lanthascreen kinase binding assay, assay G; details: read-out: Assay G mTOR IC50
Protocol: Lanthascreen™ Kinase Binding Assay for mTOR (G)
Binding of an inhibitor to the kinase competes for binding with the tracer, resulting in a loss of FRET.
50 nL of compound dilutions were dispensed onto white 384-well small volume polystyrene plate.

Sequence of Vps34 (Q8NEB9 whole entry, species assumed): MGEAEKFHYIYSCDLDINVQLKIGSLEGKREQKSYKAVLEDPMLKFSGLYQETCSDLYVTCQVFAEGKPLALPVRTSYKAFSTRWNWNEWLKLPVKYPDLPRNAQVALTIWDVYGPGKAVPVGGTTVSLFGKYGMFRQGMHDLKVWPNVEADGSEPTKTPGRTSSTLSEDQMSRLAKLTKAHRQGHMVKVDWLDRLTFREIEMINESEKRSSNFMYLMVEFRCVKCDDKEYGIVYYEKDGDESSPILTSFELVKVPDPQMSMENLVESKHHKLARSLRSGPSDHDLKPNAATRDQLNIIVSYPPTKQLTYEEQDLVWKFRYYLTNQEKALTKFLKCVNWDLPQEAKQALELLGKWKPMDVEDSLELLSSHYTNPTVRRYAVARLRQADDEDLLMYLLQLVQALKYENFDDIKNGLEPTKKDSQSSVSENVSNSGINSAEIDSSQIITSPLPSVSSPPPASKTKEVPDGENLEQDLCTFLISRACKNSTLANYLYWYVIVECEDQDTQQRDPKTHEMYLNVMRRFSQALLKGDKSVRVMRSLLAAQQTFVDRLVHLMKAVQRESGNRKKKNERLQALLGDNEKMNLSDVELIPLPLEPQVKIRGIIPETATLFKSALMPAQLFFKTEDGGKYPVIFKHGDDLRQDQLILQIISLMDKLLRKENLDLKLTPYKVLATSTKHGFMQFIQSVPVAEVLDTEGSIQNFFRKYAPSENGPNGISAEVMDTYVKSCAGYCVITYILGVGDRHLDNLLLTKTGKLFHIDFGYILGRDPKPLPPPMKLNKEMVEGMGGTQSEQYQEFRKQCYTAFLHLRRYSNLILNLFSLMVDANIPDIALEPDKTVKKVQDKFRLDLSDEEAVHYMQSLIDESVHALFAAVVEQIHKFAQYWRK

SMILES	pIC50 (Vps34)	pIC50 (PI 3-kinase alpha)	pIC50 (PI 3-kinase beta)	pIC50 (PI 3-kinase gamma)	pIC50 (PI 3-kinase delta; read-out: Assay F PI3Kδ IC50)	pIC50 (PI 4-kinase beta)	pIC50 (mTOR)	pIC50 (PI 3-kinase delta)
Cc1ccc(S(=O)(=O)NCC2(O)CCCCC2)cc1-c1cnc(N)c(-n2cncn2)n1 [Example 127.11]	< 5.00	6.01	5.89	6.57	6.12	< 5.00	< 5.00	–
Cc1ccc(S(=O)(=O)NCC2(CO)CC2)cc1-c1cnc(N)c(-n2cncn2)n1 [Example 127.38]	< 5.00	6.27	5.46	7.00	5.55	5.17	< 5.00	–
Cc1ccc(S(=O)(=O)NCC2(CO)CCOCC2)cc1-c1cnc(N)c(-n2cncn2)n1 [Example 127.50]	< 5.00	6.08	5.85	7.49	5.68	< 5.00	5.25	–
Cc1ccc(S(=O)(=O)NC2CCOC2=O)cc1-c1cnc(N)c(-n2cncn2)n1 (centres unmarked) [Example 127.30]	< 5.00	5.72	5.28	6.89	5.80	5.11	< 5.00	–
Cc1ccc(S(=O)(=O)NCC2CCN(C)C2)cc1-c1cnc(N)c(-n2cncn2)n1 (centres unmarked) [Example 127.18]	< 5.00	5.72	5.62	5.89	6.42	< 5.00	< 5.00	–
Cc1ccc(S(=O)(=O)N2CC(F)(F)C(F)(F)C2)cc1-c1cnc(N)c(-n2cncn2)n1 [Example 127.8]	< 5.00	5.22	< 5.00	6.00	< 5.00	< 5.00	< 5.00	–
COCCCNS(=O)(=O)c1ccc(C)c(-c2cnc(N)c(-n3cncn3)n2)c1 [Example 127.10]	< 5.00	5.77	5.04	6.49	5.26	< 5.00	< 5.00	–
Cc1ccc(S(=O)(=O)NC2CCSC2=O)cc1-c1cnc(N)c(-n2cncn2)n1 (centres unmarked) [Example 127.51]	< 5.00	6.22	5.72	7.19	6.24	5.28	5.23	–
Cc1cc(-c2nc(-c3cc(S(=O)(=O)NCC(C)(C)O)ccc3C)cnc2N)on1 [Example 88, 3-(5-Amino-6-(3-methylisoxazol-5-yl)pyrazin-2-yl)-N-(2-hydroxy-2-methylpropyl)-4-methylbenzenesulfonamide]	–	–	5.66	–	5.96	5.21	–	–
Cc1ncc(-c2nc(-c3cc(S(=O)(=O)NCCC(C)(C)O)ccc3C)cnc2N)o1 [Example 119.40]	< 5.00	6.82	5.46	7.64	6.74	5.21	< 5.00	–
Cc1ccc(S(=O)(=O)NC[C@@H]2CCC(C)(C)O2)cc1-c1cnc(N)c(-n2cncn2)n1 [Example 127.40]	< 5.00	6.11	5.82	6.85	–	5.12	< 5.00	5.85
Cc1ncc(-c2nc(-c3cc(S(=O)(=O)NCC4COCCN4C)ccc3C)cnc2N)s1 (centres unmarked) [Example 45.12, 3-(5-Amino-6-(2-methylthiazol-5-yl)pyrazin-2-yl)-4-methyl-N-((4-methylmorpholin-3-yl)methyl)benzenesulfonamide]	5.59	7.30	6.41	7.82	7.00	5.85	–	–
Cc1ccc(S(=O)(=O)NCC(C)(C)O)cc1-c1cnc(N)c(-c2cn(C)nc2C)n1 [Example 13]	< 5.00	–	5.96	–	–	5.19	< 5.00	–
Cc1ccc(S(=O)(=O)NCC(C)(C)CO)cc1-c1cnc(N)c(-c2nc(C3CC3)no2)n1 [Example 93, 3-(5-Amino-6-(3-cyclopropyl-1,2,4-oxadiazol-5-yl)pyrazin-2-yl)-N-(3-hydroxy-2,2-dimethylpropyl)-4-methylbenzenesulfonamide]	< 5.04	–	–	–	–	< 5.04	< 5.04	–
Cc1ncc(-c2nc(-c3cc(S(=O)(=O)NCCO)ccc3C)cnc2N)s1 [Example 45, 3-(5-Amino-6-(2-methylthiazol-5-yl)pyrazin-2-yl)-N-(2-hydroxyethyl)-4-methylbenzenesulfonamide]	5.96	–	6.28	–	6.64	5.80	–	–

Other lines, results leading:

pIC50 (Vps34)	pIC50 (PI 3-kinase alpha)	pIC50 (PI 3-kinase beta)	pIC50 (PI 3-kinase gamma)	pIC50 (PI 3-kinase delta; read-out: Assay F PI3Kδ IC50)	pIC50 (PI 4-kinase beta)	pIC50 (mTOR)	pIC50 (PI 3-kinase delta)	SMILES
< 5.04	6.05	< 5.04	6.57	5.48	< 5.04	5.11	–	CC[C@H](CO)NS(=O)(=O)c1ccc(C)c(-c2cnc(N)c(-c3ccnc(C)c3)n2)c1 [Example 129.7, (R)-3-(5-amino-6-(2-methylpyridin-4-yl)pyrazin-2-yl)-N-(1-hydroxybutan-2-yl)-4-methylbenzenesulfonamide]
< 5.04	6.26	< 5.04	7.57	6.03	5.21	< 5.04	–	Cc1cc(-c2nc(-c3cc(S(=O)(=O)NC4CCOCC4)ccc3C)cnc2N)ccn1 [Example 129.10, 3-(5-amino-6-(2-methylpyridin-4-yl)pyrazin-2-yl)-4-methyl-N-(tetrahydro-2H-pyran-4-yl)benzenesulfonamide]
< 5.04	5.27	< 5.04	7.39	5.92	< 5.04	< 5.04	–	Cc1cc(-c2nc(-c3cc(S(=O)(=O)NCC4CCN(C)C4)ccc3C)cnc2N)ccn1 (centres unmarked) [Example 129.30, 3-(5-amino-6-(2-methylpyridin-4-yl)pyrazin-2-yl)-4-methyl-N-((1-methylpyrrolidin-3-yl)methyl)benzenesulfonamide]
< 5.04	5.89	< 5.04	6.27	5.55	5.08	< 5.04	–	Cc1cc(-c2nc(-c3cc(S(=O)(=O)N4CC5(CNC5)C4)ccc3C)cnc2N)ccn1 [Example 129.37, 5-(5-(2,6-diazaspiro[3.3]heptan-2-ylsulfonyl)-2-methylphenyl)-3-(2-methylpyridin-4-yl)pyrazin-2-amine]
< 5.04	5.52	5.24	6.00	5.64	< 5.04	< 5.04	–	Cc1cc(-c2nc(-c3cc(S(=O)(=O)N[C@H]4CC[C@H](N)CC4)ccc3C)cnc2N)ccn1 [Example 129.43, 3-(5-amino-6-(2-methylpyridin-4-yl)pyrazin-2-yl)-N-((1r,4r)-4-aminocyclohexyl)-4-methylbenzenesulfonamide]
< 5.04	5.80	5.77	6.23	5.80	< 5.04	< 5.04	–	Cc1cc(-c2nc(-c3cc(S(=O)(=O)NCCN(C)C)ccc3C)cnc2N)ccn1 [Example 129.26, 3-(5-amino-6-(2-methylpyridin-4-yl)pyrazin-2-yl)-N-(2-(dimethylamino)ethyl)-4-methylbenzenesulfonamide]
< 5.04	6.54	5.74	6.92	6.10	5.17	< 5.04	–	Cc1cc(-c2nc(-c3cc(S(=O)(=O)NCC4(C(N)=O)CCOCC4)ccc3C)cnc2N)ccn1 [Example 129.31, 4-((3-(5-amino-6-(2-methylpyridin-4-yl)pyrazin-2-yl)-4-methylphenylsulfonamido)methyl)tetrahydro-2H-pyran-4-carboxamide]
< 5.04	5.72	< 5.04	6.62	5.68	< 5.04	< 5.04	–	COC(C)(C)CNS(=O)(=O)c1ccc(C)c(-c2cnc(N)c(-c3ccnc(C)c3)n2)c1 [Example 129.15, 3-(5-amino-6-(2-methylpyridin-4-yl)pyrazin-2-yl)-N-(2-methoxy-2-methylpropyl)-4-methylbenzenesulfonamide]
< 5.04	5.64	< 5.04	6.59	5.70	< 5.04	< 5.04	–	CNCCNS(=O)(=O)c1ccc(C)c(-c2cnc(N)c(-c3ccnc(C)c3)n2)c1 [Example 129.33, 3-(5-amino-6-(2-methylpyridin-4-yl)pyrazin-2-yl)-4-methyl-N-(2-(methylamino)ethyl)benzenesulfonamide]
< 5.04	6.15	< 5.04	6.96	5.92	< 5.04	< 5.04	–	Cc1cc(-c2nc(-c3cc(S(=O)(=O)NCCN)ccc3C)cnc2N)ccn1 [Example 129.34, 3-(5-amino-6-(2-methylpyridin-4-yl)pyrazin-2-yl)-N-(2-aminoethyl)-4-methylbenzenesulfonamide]
< 5.04	6.49	5.07	6.96	6.54	< 5.04	< 5.04	–	Cc1cc(-c2nc(-c3cc(S(=O)(=O)NC[C@@](C)(O)C(F)(F)F)ccc3C)cnc2N)ccn1 [Example 129.20, (R)-3-(5-amino-6-(2-methylpyridin-4-yl)pyrazin-2-yl)-4-methyl-N-(3,3,3-trifluoro-2-hydroxy-2-methylpropyl)benzenesulfonamide]
